In patent US10160762B2, “6-alkyl dihydropyrazolopyrimidinone compounds as PDE2 inhibitors” (Merck Sharp & Dohme Corp., priority 2015, dated 2018):

Biological target: T1, Rhesus PDE2A3 (Macaca mulatta, UniProt B3VTJ2)
T1 construct: made in house; host or cells: AD293 cells, transient transfection; supernatant of sonicated lysate
T1 sequence (B3VTJ2 1-941): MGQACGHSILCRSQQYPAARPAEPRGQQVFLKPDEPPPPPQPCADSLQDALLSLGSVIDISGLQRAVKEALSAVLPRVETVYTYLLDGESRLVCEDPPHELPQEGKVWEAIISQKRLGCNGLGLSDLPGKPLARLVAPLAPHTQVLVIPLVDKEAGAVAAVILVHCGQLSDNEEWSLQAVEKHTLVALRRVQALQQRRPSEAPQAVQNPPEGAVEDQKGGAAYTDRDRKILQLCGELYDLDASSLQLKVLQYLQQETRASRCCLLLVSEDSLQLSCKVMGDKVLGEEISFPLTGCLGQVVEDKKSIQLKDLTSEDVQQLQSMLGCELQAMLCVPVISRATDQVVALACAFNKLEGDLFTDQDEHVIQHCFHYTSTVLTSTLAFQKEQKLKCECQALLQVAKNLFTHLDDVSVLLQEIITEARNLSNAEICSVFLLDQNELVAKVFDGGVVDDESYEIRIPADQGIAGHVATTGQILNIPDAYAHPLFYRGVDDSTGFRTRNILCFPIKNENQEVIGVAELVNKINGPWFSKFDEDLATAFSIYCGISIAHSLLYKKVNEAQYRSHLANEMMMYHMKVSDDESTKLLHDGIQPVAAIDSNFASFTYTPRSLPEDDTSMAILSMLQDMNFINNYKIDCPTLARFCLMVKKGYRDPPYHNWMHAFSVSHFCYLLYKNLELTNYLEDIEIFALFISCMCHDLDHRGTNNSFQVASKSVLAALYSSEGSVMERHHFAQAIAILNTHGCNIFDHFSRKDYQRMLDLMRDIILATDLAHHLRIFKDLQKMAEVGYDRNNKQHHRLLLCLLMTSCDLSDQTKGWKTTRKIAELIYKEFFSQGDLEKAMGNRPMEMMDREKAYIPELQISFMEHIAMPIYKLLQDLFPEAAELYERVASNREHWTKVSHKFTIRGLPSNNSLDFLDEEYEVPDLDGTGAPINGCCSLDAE
Assay: PDE2 fluorescence polarization (IMAP FP) inhibition assay, rhesus PDE2A3
Assay type: biochemical, rhesus macaque
Settings: Lab A; read-out: Rhesus PDE2 Ki (nM) Lab A
Method in brief: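 Enzyme source was the lysate supernatant of AD293 cells transiently expressing rhesus PDE2A3, diluted to give 20% conversion of 50 nM FAM-cAMP, with 1 µM cGMP as activator. Buffer was 10 mM Tris pH 7.2, 10 mM MgCl2, 1 mM DTT.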

Compound | Ki [nM]
COc1ccc(Cc2nc3c(c(C)nn3C(C)c3ccc(C(F)(F)F)cc3)c(=O)[nH]2)cc1OC (stereo not shown) [Example 44, 6-(3,4-Dimethoxybenzyl)-3-methyl-1-{1-[4-(trifluoromethyl)phenyl]ethyl}-1,5-dihydro-4H-pyrazolo[3,4-d]pyrimidin-4-one] | 4.8
COc1cccc(Cc2nc3c(c(C)nn3C(C)c3ccc(C(F)(F)F)cc3)c(=O)[nH]2)c1 (stereo not shown) [Example 45, 6-(3-Methoxybenzyl)-3-methyl-1-{1-[4-(trifluoromethyl)phenyl]ethyl}-1,5-dihydro-4H-pyrazolo[3,4-d]pyrimidin-4-one] | 26
COc1ccc(Cc2nc3c(c(C)nn3C(C)c3ccc(C(F)(F)F)cc3)c(=O)[nH]2)cc1 (stereo not shown) [Example 46, 6-(4-Methoxybenzyl)-3-methyl-1-{1-[4-(trifluoromethyl)phenyl]ethyl}-1,5-dihydro-4H-pyrazolo[3,4-d]pyrimidin-4-one] | 7.1
COc1cccc(-c2nc3c(c(C)nn3C(C)c3ccc(C(F)(F)F)cc3)c(=O)[nH]2)c1 (stereo not shown) [Example 47, 6-(3-Methoxyphenyl)-3-methyl-1-{1-[4-(trifluoromethyl)phenyl]ethyl}-1,5-dihydro-4H-pyrazolo[3,4-d]pyrimidin-4-one] | 18
Cc1nn(C(C)c2ccc(C(F)(F)F)cc2)c2nc(-c3cnc4ccccc4n3)[nH]c(=O)c12 (stereo not shown) [Example 50, 3-Methyl-6-quinoxalin-2-yl-1-{1-[4-(trifluoromethyl)phenyl]ethyl}-1,5-dihydro-4H-pyrazolo[3,4-d]pyrimidin-4-one] | 62
Cc1nn(C(C)c2ccc(C(F)(F)F)cc2)c2nc(-c3ccccn3)[nH]c(=O)c12 (stereo not shown) [Example 52, 3-Methyl-6-pyridin-2-yl-1-{1-[4-(trifluoromethyl)phenyl]ethyl}-1,5-dihydro-4H-pyrazolo[3,4-d]pyrimidin-4-one] | 28

Results, then the molecule that gave them:

Ki [nM] | Compound
340 | Cc1nn(C(C)c2ccc(C(F)(F)F)cc2)c2nc(C3CCCC3)[nH]c(=O)c12 (stereo not shown) [Example 40, 6-Cyclopentyl-3-methyl-1-{1-[4-(trifluoromethyl)phenyl]ethyl}-1,5-dihydro-4H-pyrazolo[3,4-d]pyrimidin-4-one]
64 | CCCc1nc2c(c(C)nn2C(C)c2ccc(C(F)(F)F)cc2)c(=O)[nH]1 (stereo not shown) [Example 41, 3-Methyl-6-propyl-1-{1-[4-(trifluoromethyl)phenyl]ethyl}-1,5-dihydro-4H-pyrazolo[3,4-d]pyrimidin-4-one]
58 | Cc1nn(C(C)c2ccc(C(F)(F)F)cc2)c2nc(C3CC3)[nH]c(=O)c12 (stereo not shown) [Example 42, 6-Cyclopropyl-3-methyl-1-{1-[4-(trifluoromethyl)phenyl]ethyl}-1,5-dihydro-4H-pyrazolo[3,4-d]pyrimidin-4-one]
257 | Cc1nn(C(C)c2ccc(C(F)(F)F)cc2)c2nc(C(C)C)[nH]c(=O)c12 (stereo not shown) [Example 43, 3-Methyl-6-(1-methylethyl)-1-{1-[4-(trifluoromethyl)phenyl]ethyl}-1,5-dihydro-4H-pyrazolo[3,4-d]pyrimidin-4-one]
36 | COCc1nc2c(c(C)nn2C(C)c2ccc(C(F)(F)F)cc2)c(=O)[nH]1 (stereo not shown) [Example 48, 6-(Methoxymethyl)-3-methyl-1-{1-[4-(trifluoromethyl)phenyl]ethyl}-1,5-dihydro-4H-pyrazolo[3,4-d]pyrimidin-4-one]
9 | Cc1nn(C(C)c2ccc(C(F)(F)F)cc2)c2nc(-c3ccco3)[nH]c(=O)c12 (stereo not shown) [Example 49, 6-Furan-2-yl-3-methyl-1-{1-[4-(trifluoromethyl)phenyl]ethyl}-1,5-dihydro-4H-pyrazolo[3,4-d]pyrimidin-4-one]
79 | Cc1nn(C(C)c2ccc(C(F)(F)F)cc2)c2nc(CF)[nH]c(=O)c12 (stereo not shown) [Example 51, 6-(Fluoromethyl)-3-methyl-1-{1-[4-(trifluoromethyl)phenyl]ethyl}-1,5-dihydro-4H-pyrazolo[3,4-d]pyrimidin-4-one]
